Active and inactive are the calls of the source. The rule behind the calls is not given here.
System: rodent carcinogenicity bioassays, tumor incidence
Assay: CCRIS carcinogenicity studies
In short: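 Archive of carcinogenicity, mutagenicity, tumor promotion and tumor inhibition results drawn from journals, NCI reports and other sources, expert-reviewed; covers 1985-2011 and is no longer updated.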

Measured: carcinogen call

CCN(CC)N=O
active: Species: DOG, Route: ORAL, Tumor Site: Type of Lesion: LIVER active; positive | Species: FISH, Route: ORAL, Tumor Site: Type of Lesion: LIVER active; positive | Species: FISH, Strain/Sex: GUPPY POECILIA RETICULATA/MALE, FEMALE, Route: IMMERSION, Dose: 0, 29.4 MG/L IN WATER FOR 28 D (STUDY DURATION: 6 MONTHS), Tumor Site: Type of Lesion: LIVER: MULTIFOCAL HEPATOMA, CHOLANGIOMA active; positive | Species: FISH, Strain/Sex: MEDAKA/MALE,FEMALE, Route: IMMERSION, Dose: 0, 390 PPM IN AQUEOUS BATH FOR 48 HR (STUDY DURATION: 7 MO), Tumor Site: Type of Lesion: LIVER: TUMOR active; positive | Species: FISH, Strain/Sex: SHASTA RAINBOW TROUT/FEMALE, Route: ORAL, Dose: 0, 4, 70, 275, 550, 1100 PPM IN DIET FOR 12 MO (STUDY DURATION: 18 MO), Dose: 0, 4, 70, 275, 550, 1100 PPM IN DIET FOR 12 MO (STUDY DURATION: 18 MO), Tumor Site: Type of Lesion: LIVER: TUMOR active; positive | Species: FISH, Strain/Sex: SHASTA RAINBOW TROUT/MALE, Route: ORAL, Dose: 0, 4, 70, 275, 550, 1100 PPM IN DIET FOR 12 MO (STUDY DURATION: 18 MO), Dose: 0, 4, 70, 275, 550, 1100 PPM IN DIET FOR 12 MO (STUDY DURATION: 18 MO), Tumor Site: Type of Lesion: LIVER: TUMOR active; positive | Species: GUINEA PIG, Route: ORAL, SUBCUTANEOUS, Tumor Site: Type of Lesion: LIVER active; positive | Species: HAMSTER, Route: DERMAL, Tumor Site: Type of Lesion: NASAL CAVITY active; positive | Species: HAMSTER, Route: INHALATION, Tumor Site: Type of Lesion: TRACHEA, LUNG active; positive | Species: HAMSTER, Route: INTRAPERITONEAL, Tumor Site: Type of Lesion: TRACHEA, NASAL CAVITY, BRONCHI, LIVER, Tumor Site: Type of Lesion: TRACHEA, NASAL CAVITY, BRONCHI, LIVER active; positive | Species: HAMSTER, Route: ORAL, Tumor Site: Type of Lesion: TRACHEA, LUNG, NASAL CAVITY, BRONCHI, LIVER, FORESTOMACH, ESOPHAGUS, Tumor Site: Type of Lesion: TRACHEA, LUNG, NASAL CAVITY, BRONCHI, LIVER, FORESTOMACH, ESOPHAGUS active; positive | Species: HAMSTER, Route: SUBCUTANEOUS, Tumor Site: Type of Lesion: NASAL CAVITY, BRONCHI, TRACHEA, LUNG, LIVER, FORESTOMACH, ESOPHAGUS, Tumor Site: Type of Lesion: NASAL CAVITY, BRONCHI, TRACHEA, LUNG, LIVER, FORESTOMACH, ESOPHAGUS active; positive | Species: HAMSTER, Strain/Sex: SYRIAN/FEMALE, Route: INTRATRACHEAL, Dose: 0, 1 MG IN 0.1 ML PHOSPHATE BUFFER 15/WK FOR 4 MO (STUDY DURATION: 237 D), Tumor Site: Type of Lesion: LUNG: ADENOMA OR CARCINOMA, TRACHEA: PAPILLOMA active; positive | Species: HAMSTER, Strain/Sex: SYRIAN/MALE, Route: INTRATRACHEAL, Dose: 0, 0.1, 0.5 MG IN PHOSPHATE BUFFER 1/WK FOR 15 WK (TOTAL DOSE; 1.5; 7.5 MG) (STUDY DURATION: LIFESPAN), Dose: 0, 0.1, 0.5 MG IN PHOSPHATE BUFFER 1/WK FOR 15 WK (TOTAL DOSE; 1.5; 7.5 MG) (STUDY DURATION: LIFESPAN), Tumor Site: Type of Lesion: TRACHEA: PAPILLOMA, LUNG: ADENOMA, SQUAMOUS CARCINOMA, ADENOCARCINOMA, LIVER: HEPATOCELLULAR CARCINOMA, Tumor Site: Type of Lesion: TRACHEA: PAPILLOMA, LUNG: ADENOMA, SQUAMOUS CARCINOMA, ADENOCARCINOMA, LIVER: HEPATOCELLULAR CARCINOMA active; positive | Species: MONKEY, Route: ORAL, INTRAPERITONEAL, Tumor Site: Type of Lesion: LIVER active; positive | Species: MOUSE, Route: DERMAL, Tumor Site: Type of Lesion: NASAL CAVITY active; positive | Species: MOUSE, Route: ORAL, Tumor Site: Type of Lesion: LIVER, ESOPHAGUS, LUNG, FORESTOMACH, Tumor Site: Type of Lesion: LIVER, ESOPHAGUS, LUNG, FORESTOMACH active; positive | Species: MOUSE, Route: SUBCUTANEOUS, INTRAPERITONEAL, Tumor Site: Type of Lesion: LUNG active; positive | Species: MOUSE, Strain/Sex: AKR/MALE, Route: ORAL, Dose: 0, 100 PPM IN DRINKING WATER FOR DURATION OF STUDY (STUDY DURATION: 150 D), Tumor Site: Type of Lesion: LUNG: TUMOR active; positive | Species: MOUSE, Strain/Sex: B6C3F1/FEMALE, Route: INTRAPERITONEAL, Dose: 0, 1.5, 3 UG IN 0.01 ML TRIOCTANOIN/G BW INITIAL DOSE GIVEN ON DAY 1 OF AGE AND 3 SUBSEQUENT DOSES GIVEN 3, 9 AND 15 DAY, Dose: 0, 1.5, 3 UG IN 0.01 ML TRIOCTANOIN/G BW INITIAL DOSE GIVEN ON DAY 1 OF AGE AND 3 SUBSEQUENT DOSES GIVEN 3, 9 AND 15 DAY, Tumor Site: Type of Lesion: LIVER: ADENOMA, CARCINOMA, LUNG: TUMORS active; positive | Species: MOUSE, Strain/Sex: B6C3F1/FEMALE, Route: INTRAPERITONEAL, Dose: 0, 1.5, 3 UG IN 0.01 ML TRIOCTANOIN/G BW INITIAL DOSE GIVEN ON DAY 15 OF AGE AND 3 SUBSEQUENT DOSES GIVEN 3, 9 AND 15 DA, Dose: 0, 1.5, 3 UG IN 0.01 ML TRIOCTANOIN/G BW INITIAL DOSE GIVEN ON DAY 15 OF AGE AND 3 SUBSEQUENT DOSES GIVEN 3, 9 AND 15 DA, Tumor Site: Type of Lesion: LIVER: ADENOMA, CARCINOMA, LUNG: TUMORS active; positive | Species: MOUSE, Strain/Sex: B6C3F1/FEMALE, Route: INTRAPERITONEAL, Dose: 0, 1.5, 3 UG IN 0.01 ML TRIOCTANOIN/G BW INITIAL DOSE GIVEN ON DAY 42 OF AGE AND 3 SUBSEQUENT DOSES GIVEN 3, 9 AND 15 DA, Dose: 0, 1.5, 3 UG IN 0.01 ML TRIOCTANOIN/G BW INITIAL DOSE GIVEN ON DAY 42 OF AGE AND 3 SUBSEQUENT DOSES GIVEN 3, 9 AND 15 DA, Tumor Site: Type of Lesion: LIVER: ADENOMA, CARCINOMA, LUNG: TUMORS active; positive | Species: MOUSE, Strain/Sex: B6C3F1/MALE, Route: INTRAPERITONEAL, Dose: 0, 0.02, 0.07 UMOL/G BW IN 10 µL/G BW TRIOCTANOIN ONCE AT 12 D OF AGE (STUDY DURATION: 9 MO), Dose: 0, 0.02, 0.07 UMOL/G BW IN 10 µL/G BW TRIOCTANOIN ONCE AT 12 D OF AGE (STUDY DURATION: 9 MO), Tumor Site: Type of Lesion: LIVER: HEPATOMA active; positive | Species: MOUSE, Strain/Sex: B6C3F1/MALE, Route: INTRAPERITONEAL, Dose: 0, 1.5, 3 UG IN 0.01 ML TRIOCTANOIN/G BW INITIAL DOSE GIVEN ON DAY 1 OF AGE AND 3 SUBSEQUENT DOSES GIVEN 3, 9 AND 15 DAY, Dose: 0, 1.5, 3 UG IN 0.01 ML TRIOCTANOIN/G BW INITIAL DOSE GIVEN ON DAY 1 OF AGE AND 3 SUBSEQUENT DOSES GIVEN 3, 9 AND 15 DAY, Tumor Site: Type of Lesion: LIVER: ADENOMA, CARCINOMA, LUNG: TUMORS active; positive | Species: MOUSE, Strain/Sex: B6C3F1/MALE, Route: INTRAPERITONEAL, Dose: 0, 1.5, 3 UG IN 0.01 ML TRIOCTANOIN/G BW INITIAL DOSE GIVEN ON DAY 15 OF AGE AND 3 SUBSEQUENT DOSES GIVEN 3, 9 AND 15 DA, Dose: 0, 1.5, 3 UG IN 0.01 ML TRIOCTANOIN/G BW INITIAL DOSE GIVEN ON DAY 15 OF AGE AND 3 SUBSEQUENT DOSES GIVEN 3, 9 AND 15 DA, Tumor Site: Type of Lesion: LIVER: ADENOMA, CARCINOMA, LUNG: TUMORS active; positive | Species: MOUSE, Strain/Sex: B6C3F1/MALE, Route: INTRAPERITONEAL, Dose: 0, 1.5, 3 UG IN 0.01 ML TRIOCTANOIN/G BW INITIAL DOSE GIVEN ON DAY 42 OF AGE AND 3 SUBSEQUENT DOSES GIVEN 3, 9 AND 15 DA, Dose: 0, 1.5, 3 UG IN 0.01 ML TRIOCTANOIN/G BW INITIAL DOSE GIVEN ON DAY 42 OF AGE AND 3 SUBSEQUENT DOSES GIVEN 3, 9 AND 15 DA, Tumor Site: Type of Lesion: LIVER: ADENOMA, CARCINOMA, LUNG: TUMORS active; positive
